Broadly, the MIC is the lowest concentration found to suppress growth. The low end stands for greater potency, the high end for weaker potency.

For the test, the system named is MRSA (USA300 ATCC BAA-1556). Briefly: Minimum inhibitory concentrations against MRSA by broth microdilution. The following applies: Mueller Hinton II broth with 0.002% (v/v) Polysorbate-, compound = scaffold with R′ and R″ (table column). The class given is cell-based, Staphylococcus aureus. How it is done: Example 7—Minimum Inhibitory Concentrations Against MRSA Determined Using Broth Microdilution
In vitro activities were determined using CLSJ-guided broth susceptibility testing to measure drug minimum inhibitory concentrations (MICs) of compounds against MRSA (USA300 ATCC BAA-1556). The test medium used for the MIC assay was Mueller Hinton II broth made with 0.002% (v/v) Polysorbate-. Media was prepared fresh on the day of testing and stored according to guidelines from CLSJ.
For orientation: Broth dilution looks for growth in wells or tubes with falling amounts of substance.

Converted amounts (≈) assume the structure as drawn.

Consider `CCCCCCCCCCCC(=O)NCCNC1(C)CC(OC2C(Oc3c4cc5cc3Oc3ccc(cc3Cl)C(O)C3NC(=O)C(NC(=O)C5NC(=O)C(CC(N)=O)NC(=O)C(NC(=O)C(CC(C)C)NC)C(O)c5ccc(c(Cl)c5)O4)c4ccc(O)c(c4)-c4c(O)cc(O)cc4C(C(=O)O)NC3=O)OC(CO)C(O)C2O)OC(C)C1O` (centres unmarked) [RV62 (R″ = H)], for which the minimal inhibitory concentration (MIC) is 0.016 µg/mL (≈ 0.00955 µM).
As for `CCCCCCCCCCCCNC(=O)CNC1(C)CC(OC2C(Oc3c4cc5cc3Oc3ccc(cc3Cl)C(O)C3NC(=O)C(NC(=O)C5NC(=O)C(CC(N)=O)NC(=O)C(NC(=O)C(CC(C)C)NC)C(O)c5ccc(c(Cl)c5)O4)c4ccc(O)c(c4)-c4c(O)cc(O)cc4C(C(=O)O)NC3=O)OC(CO)C(O)C2O)OC(C)C1O` (centres unmarked) [RV95 (R″ = H)], the MIC amounted to 0.031 µg/mL (≈ 0.0185 µM).

For the origin of these results see patent US20220024980A1, “LIPO-GLYCOPEPTIDE CLEAVABLE DERIVATIVES AND USES THEREOF” (INSMED INCORPORATED, priority 2018, published 2022).
